Where a name gives a salt, the structure may show the parent alone. Read-outs that look alike come from different tables or passages of the source.

For series [1], the target named is T1, Nav1.5 (Homo sapiens (Human), UniProt Q14524).
The target of series [2] is T2, Nav1.6 (Homo sapiens (Human), UniProt Q9UQD0). The experiment in a line: Sodium Influx Assay (Flux), Nav1.6. In kind it is cell-based. The settings on record: Trex HEK293 cells, ANG2 dye, inactivated state.
Another series has as its target Nav1.1 (Homo sapiens (Human), UniProt P35498). The series is described as follows: Sodium Influx Assay (Flux), Nav1.1. In kind it is cell-based. The settings on record: Trex HEK293 cells, ANG2 dye, inactivated state.
Series [3] addresses T1, Nav1.5. The series is described as follows: Sodium Influx Assay (Flux), Nav1.5.
Series [4] addresses T2, Nav1.6. The series is described as follows: Electrophysiological Assay (EP, patch voltage clamp), Nav1.6. Type of series: cell-based. The settings on record: HEK-293 cells stably expressing the channel. From the text:
Patch voltage clamp electrophysiology allows for the direct measurement and quantification of block of voltage-gated sodium channels (Nav's), and allows the determination of the time- and voltage-dependence of block which has been interpreted as differential binding to the resting, open, and inactivated states of the sodium channel (Hille, B., Journal of General Physiology (1977), 69: 497-515).
Nav1.1, Nav1.5 and Nav1.6 cDNAs (NM_001165964 (SCN1A), NM_000335 (SCN5A) and NM_014191 (SCN8A), respectively) were stably expressed in HEK-293 cells.
Sodium currents were measured using the patch clamp technique in the whole-cell configuration using either a PatchXpress automated voltage clamp or manually using an Axopatch 200B (Axon Instruments) or Model 2400 (A-M systems) amplifier. The manual voltage clamp protocol was as follows: Borosilicate glass micropipettes were fire-polished to a tip diameter yielding a resistance of 2-4 Mohms in the working solutions. […] In some studies, the external sodium was reduced by equimolar replacement with choline. Osmolarity in the CsF internal and NaCl external solutions was adjusted to 300 mOsm/kg and 310 mOsm/kg with glucose, respectively. All recordings were performed at ambient temperature in a bath chamber with a volume of 150 μL. Control sodium currents were measured in 0.5% DMSO. Controls and representative compounds of the invention were applied to the recording chamber through a 4-pinch or 8-pinch valve bath perfusion system manufactured by ALA Scientific Instruments.
Currents were recorded at 40 kHz sampling frequency, filtered at […], and stored using a Digidata-1322A analogue/digital interface with the pClamp software (Axon Instruments). Series resistance compensation was applied (60-80%). […] All statistics in this study are given as mean±SD.
The membrane potential was maintained at a voltage where inactivation of the channel is complete. The voltage is then stepped back to a very negative (Vhold=−150 mV) voltage for 20 ms and then a test pulse is applied to quantify the compound block. The 20 ms brief repolarization was long enough for compound-free channels to completely recover from fast inactivation, but the compound-bound channels recovered more slowly such that negligible recovery could occur during this interval. The percent decrease in sodium current following wash-on of compound was taken as the percent block of sodium channels.

[5] abbreviates: read-out: Flux NaV1.5 IC50, sodium influx assay, Trex HEK293 cells, ANG2 dye, inactivated state.

T1 sequence (Q14524 other isoform, or with tags, fused parts or gaps): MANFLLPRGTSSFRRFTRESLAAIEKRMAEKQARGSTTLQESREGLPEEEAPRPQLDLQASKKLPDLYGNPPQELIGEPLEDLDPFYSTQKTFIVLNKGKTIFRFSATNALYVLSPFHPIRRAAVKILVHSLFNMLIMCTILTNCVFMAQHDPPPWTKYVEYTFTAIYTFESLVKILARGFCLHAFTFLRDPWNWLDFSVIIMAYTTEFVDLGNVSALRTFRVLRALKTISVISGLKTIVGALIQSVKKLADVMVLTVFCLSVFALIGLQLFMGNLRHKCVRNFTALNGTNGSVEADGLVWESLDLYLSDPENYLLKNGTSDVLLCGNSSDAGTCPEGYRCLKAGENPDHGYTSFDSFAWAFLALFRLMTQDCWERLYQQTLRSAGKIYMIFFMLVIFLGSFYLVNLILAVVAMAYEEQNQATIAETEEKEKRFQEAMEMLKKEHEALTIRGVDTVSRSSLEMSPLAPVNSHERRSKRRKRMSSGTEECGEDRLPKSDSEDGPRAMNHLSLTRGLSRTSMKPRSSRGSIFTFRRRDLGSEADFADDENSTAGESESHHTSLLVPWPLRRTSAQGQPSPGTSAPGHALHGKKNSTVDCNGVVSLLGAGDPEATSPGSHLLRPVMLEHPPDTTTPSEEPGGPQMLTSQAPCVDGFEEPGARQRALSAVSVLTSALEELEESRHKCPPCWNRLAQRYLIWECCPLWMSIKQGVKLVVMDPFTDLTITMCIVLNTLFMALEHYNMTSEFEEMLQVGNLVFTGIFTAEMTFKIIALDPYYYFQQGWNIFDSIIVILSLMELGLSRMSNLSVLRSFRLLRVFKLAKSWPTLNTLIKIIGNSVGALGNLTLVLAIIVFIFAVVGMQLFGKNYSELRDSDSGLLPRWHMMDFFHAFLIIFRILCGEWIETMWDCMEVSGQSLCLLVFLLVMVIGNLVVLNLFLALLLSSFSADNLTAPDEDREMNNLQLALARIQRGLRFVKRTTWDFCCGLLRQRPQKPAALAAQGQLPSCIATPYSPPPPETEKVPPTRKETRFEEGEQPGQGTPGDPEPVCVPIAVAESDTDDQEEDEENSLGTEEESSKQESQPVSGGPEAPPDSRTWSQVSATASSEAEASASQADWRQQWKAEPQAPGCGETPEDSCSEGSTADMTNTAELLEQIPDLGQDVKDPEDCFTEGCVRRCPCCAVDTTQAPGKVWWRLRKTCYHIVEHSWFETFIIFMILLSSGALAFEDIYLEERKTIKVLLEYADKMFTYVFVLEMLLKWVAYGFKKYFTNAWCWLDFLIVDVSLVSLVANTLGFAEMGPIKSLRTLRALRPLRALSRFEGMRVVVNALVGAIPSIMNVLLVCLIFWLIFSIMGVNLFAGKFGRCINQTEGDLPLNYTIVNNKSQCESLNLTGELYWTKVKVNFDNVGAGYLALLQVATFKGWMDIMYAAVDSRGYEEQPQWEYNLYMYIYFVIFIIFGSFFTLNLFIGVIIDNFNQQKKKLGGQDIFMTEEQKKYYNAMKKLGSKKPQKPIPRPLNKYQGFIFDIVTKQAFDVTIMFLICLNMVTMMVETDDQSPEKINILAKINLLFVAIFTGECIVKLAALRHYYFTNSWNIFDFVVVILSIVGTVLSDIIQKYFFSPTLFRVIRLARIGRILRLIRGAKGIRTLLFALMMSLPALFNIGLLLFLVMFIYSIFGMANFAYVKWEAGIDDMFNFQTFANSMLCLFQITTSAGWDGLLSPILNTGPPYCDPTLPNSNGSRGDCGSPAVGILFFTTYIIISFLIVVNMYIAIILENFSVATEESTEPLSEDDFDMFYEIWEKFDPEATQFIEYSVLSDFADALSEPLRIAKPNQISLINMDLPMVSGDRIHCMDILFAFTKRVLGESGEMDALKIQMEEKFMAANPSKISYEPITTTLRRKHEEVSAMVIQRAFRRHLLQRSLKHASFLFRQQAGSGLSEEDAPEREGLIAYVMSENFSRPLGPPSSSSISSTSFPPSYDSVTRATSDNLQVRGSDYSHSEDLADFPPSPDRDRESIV
T2 sequence (Q9UQD0 whole entry): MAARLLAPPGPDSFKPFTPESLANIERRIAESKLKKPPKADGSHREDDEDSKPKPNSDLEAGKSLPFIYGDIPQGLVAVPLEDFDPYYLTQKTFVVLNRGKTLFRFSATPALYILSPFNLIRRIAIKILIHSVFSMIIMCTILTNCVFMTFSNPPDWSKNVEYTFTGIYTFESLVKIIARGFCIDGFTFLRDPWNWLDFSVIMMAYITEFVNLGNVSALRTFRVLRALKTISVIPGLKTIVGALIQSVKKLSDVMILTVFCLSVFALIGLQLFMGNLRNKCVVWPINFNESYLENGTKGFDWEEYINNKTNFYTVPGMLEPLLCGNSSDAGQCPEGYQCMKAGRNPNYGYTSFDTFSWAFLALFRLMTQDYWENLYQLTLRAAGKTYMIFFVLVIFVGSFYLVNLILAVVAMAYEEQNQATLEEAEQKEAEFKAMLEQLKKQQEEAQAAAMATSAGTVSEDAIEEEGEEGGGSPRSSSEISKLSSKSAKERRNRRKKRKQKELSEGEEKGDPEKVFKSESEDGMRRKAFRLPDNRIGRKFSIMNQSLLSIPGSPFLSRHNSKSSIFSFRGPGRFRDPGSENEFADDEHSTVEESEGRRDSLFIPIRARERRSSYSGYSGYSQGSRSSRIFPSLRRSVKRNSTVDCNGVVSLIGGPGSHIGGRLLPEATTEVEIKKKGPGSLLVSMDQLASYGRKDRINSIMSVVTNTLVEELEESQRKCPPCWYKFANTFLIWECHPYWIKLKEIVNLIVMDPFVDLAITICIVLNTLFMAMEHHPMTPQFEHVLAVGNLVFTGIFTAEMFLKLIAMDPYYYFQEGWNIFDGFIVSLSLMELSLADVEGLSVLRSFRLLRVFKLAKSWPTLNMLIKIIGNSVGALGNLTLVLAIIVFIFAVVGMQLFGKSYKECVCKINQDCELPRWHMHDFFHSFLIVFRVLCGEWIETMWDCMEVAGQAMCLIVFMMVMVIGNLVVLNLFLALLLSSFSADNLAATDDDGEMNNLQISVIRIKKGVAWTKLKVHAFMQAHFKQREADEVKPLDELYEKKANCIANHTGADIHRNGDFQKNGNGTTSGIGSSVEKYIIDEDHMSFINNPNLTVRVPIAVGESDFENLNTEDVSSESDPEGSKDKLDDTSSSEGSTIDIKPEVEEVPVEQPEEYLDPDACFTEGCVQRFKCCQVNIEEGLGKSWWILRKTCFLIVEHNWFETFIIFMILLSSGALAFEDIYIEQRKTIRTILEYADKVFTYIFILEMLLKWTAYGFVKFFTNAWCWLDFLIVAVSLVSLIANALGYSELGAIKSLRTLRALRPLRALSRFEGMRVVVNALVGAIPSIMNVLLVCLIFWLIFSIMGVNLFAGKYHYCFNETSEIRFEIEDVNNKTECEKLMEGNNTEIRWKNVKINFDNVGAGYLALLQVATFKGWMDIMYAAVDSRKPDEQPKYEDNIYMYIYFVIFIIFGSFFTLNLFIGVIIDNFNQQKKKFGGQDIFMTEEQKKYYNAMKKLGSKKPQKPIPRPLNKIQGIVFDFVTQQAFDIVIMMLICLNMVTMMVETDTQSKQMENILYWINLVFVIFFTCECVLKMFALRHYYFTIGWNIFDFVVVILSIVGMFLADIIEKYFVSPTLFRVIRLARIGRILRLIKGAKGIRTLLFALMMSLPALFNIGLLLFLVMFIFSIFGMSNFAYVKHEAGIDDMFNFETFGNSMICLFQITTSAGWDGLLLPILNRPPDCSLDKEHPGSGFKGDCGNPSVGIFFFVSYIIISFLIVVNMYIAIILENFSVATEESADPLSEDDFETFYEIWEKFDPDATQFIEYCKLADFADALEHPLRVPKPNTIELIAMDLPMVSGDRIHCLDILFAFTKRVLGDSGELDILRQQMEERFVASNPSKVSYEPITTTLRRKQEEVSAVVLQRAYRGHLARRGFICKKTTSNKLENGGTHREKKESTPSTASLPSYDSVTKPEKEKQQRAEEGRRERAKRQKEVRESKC

Regarding `O=S(=O)(Nc1cscn1)c1ccc(NCc2c(F)cccc2CN2C3CCC2CC3)c(C(F)(F)F)n1` [Example 47, 5-((2-((7-azabicyclo[2.2.1]heptan-7-yl)methyl)-6-fluorobenzyl)amino)-N-(thiazol-4-yl)-6-(trifluoromethyl)pyridine-2-sulfonamide trifluoroacetic acid salt], the figures for the IC50 against Nav1.5 [1], against Nav1.6 [2] and at Nav1.1 were 30 µM, 21 nM and 13.6 µM, respectively.
Consider `Cc1nc(S(=O)(=O)Nc2cscn2)c(F)cc1NCc1c(F)cccc1CN1C2CCC1CC2` [Example 33, 5-((2-((azabicyclo[2.2.1]heptan-7-yl)methyl)-6-fluorobenzyl)amino)-3-fluoro-6-methyl-N-(thiazol-4-yl)pyridine-2-sulfonamide trifluoroacetic acid salt], for which the IC50 (usually the concentration at which inhibition is half-maximal) on Nav1.5 [1] turned out to be 30 µM.
Take `Cc1nc(S(=O)(=O)Nc2cscn2)ccc1NCc1c(F)cccc1CN1C2CCC1CC2` [Example 25, 5-((2-((7-azabicyclo[2.2.1]heptan-7-yl)methyl)-6-fluorobenzyl)amino)-6-methyl-N-(thiazol-4-yl)pyridine-2-sulfonamide trifluoroacetic acid salt]: the values for the IC50 against Nav1.5 [1], on Nav1.6 [2] and on Nav1.1 were 30 µM, 154 nM and 30 µM, respectively.
`Cc1nc(S(=O)(=O)Nc2ccsn2)ccc1NCc1c(F)cccc1CN(C)C(C)(C)C` [Example 19, 5-((2-((tert-butyl(methyl)amino)methyl)-6-fluorobenzyl)amino)-N-(isothiazol-3-yl)-6-methylpyridine-2-sulfonamide trifluoroacetic acid salt]: the IC50 on Nav1.5 [3] (setting [5]) was determined as 30 µM; against Nav1.6 [4], 38 nM; against Nav1.6 [2] it was 221 nM; on Nav1.1 it was 30 µM.
`Cc1nc(S(=O)(=O)Nc2cscn2)c(F)cc1NCc1c(F)cccc1CN(C)C(C)(C)C` [Example 48, 5-((2-((tert-butyl(methyl)amino)-methyl)-6-fluorobenzyl)amino)-3-fluoro-6-methyl-N-(thiazol-4-yl)pyridine-2-sulfonamide]: the IC50 at Nav1.5 [3] (setting [5]) was determined as 30 µM; against Nav1.6 [4], 17 nM; at Nav1.6 [2] it was 84 nM; on Nav1.1, 30 µM.
Regarding `Cc1nc(S(=O)(=O)Nc2cscn2)ccc1NCc1c(F)cccc1CN(C)C(C)(C)C` [Example 6, 5-((2-((tert-butyl(methyl)amino)methyl)-6-fluorobenzyl)amino)-6-methyl-N-(thiazol-4-yl)pyridine-2-sulfonamide formic acid salt], the IC50 on Nav1.5 [3] (setting [5]) came out at 30 µM; against Nav1.6 [4], 69 nM; at Nav1.6 [2], 398 nM; against Nav1.1, 30 µM.
`Cc1nc(S(=O)(=O)Nc2cscn2)ccc1NCc1c(F)cccc1CN1CCC1` [Example 4, 5-((2-(azetidin-1-ylmethyl)-6-fluorobenzyl)amino)-6-methyl-N-(thiazol-4-yl)pyridine-2-sulfonamide]: the IC50 is 28.2 µM at Nav1.5 [3] (setting [5]), 26 nM on Nav1.6 [4], 111 nM on Nav1.6 [2] and 28.8 µM at Nav1.1.
On to `Cc1nc(S(=O)(=O)Nc2cscn2)ccc1NCc1c(F)cccc1CN(C)C(C)C` [Example 29, 5-((2-fluoro-6-((isopropyl(methyl)amino)methyl)benzyl)amino)-6-methyl-N-(thiazol-4-yl)pyridine-2-sulfonamide trifluoroacetic acid salt], for which the IC50 is no less than 30 µM on Nav1.5 [3], 39 nM against Nav1.6 [4], 82 nM on Nav1.6 [2] and no less than 30 µM on Nav1.1.
Take `Cc1nc(S(=O)(=O)Nc2ccsn2)ccc1NCc1c(F)cccc1CN1CCC1` [Example 20, 5-((2-(azetidin-1-ylmethyl)-6-fluorobenzyl)amino)-N-(isothiazol-3-yl)-6-methylpyridine-2-sulfonamide trifluoroacetic acid salt]: the IC50 on Nav1.5 [3] (setting [5]) came to 25 µM; at Nav1.6 [4], 23 nM; on Nav1.6 [2], 67 nM; on Nav1.1 it was 30 µM.
`Cc1nc(S(=O)(=O)Nc2cccc(F)n2)ccc1NCc1c(F)cccc1CN(C)C(C)(C)C` [Example 22, 5-((2-((tert-butyl(methyl)amino)methyl)-6-fluorobenzyl)amino)-N-(6-fluoropyridin-2-yl)-6-methylpyridine-2-sulfonamide trifluoroacetic acid salt]: the IC50 was determined as 30 µM at Nav1.5 [3] (setting [5]), 221 nM against Nav1.6 [2] and 30 µM at Nav1.1.
As to `Cc1nc(S(=O)(=O)Nc2cscn2)ccc1NCc1c(F)ccc(F)c1CN(C)C(C)(C)C` [Example 21, 5-((2-((tert-butyl(methyl)amino)methyl)-3,6-difluorobenzyl)amino)-6-methyl-N-(thiazol-4-yl)pyridine-2-sulfonamide trifluoroacetic acid salt], the IC50 on Nav1.5 [3] (setting [5]) worked out at 30 µM; on Nav1.6 [4], 43 nM; at Nav1.6 [2], 102 nM; on Nav1.1 it was 30 µM.
Take `Cc1nc(S(=O)(=O)Nc2cscn2)c(F)cc1NCc1c(F)cccc1CN(C)C(C)C` [Example 35, 3-fluoro-5-((2-fluoro-6-((isopropyl(methyl)amino)methyl)benzyl)amino)-6-methyl-N-(thiazol-4-yl)pyridine-2-sulfonamide trifluoroacetic acid salt]: the IC50 on Nav1.5 [3] is no less than 30 µM; against Nav1.6 [2], 24 nM; against Nav1.1, 10.5 µM.

The values above are taken from patent US10981905B2, “Heteroaryl-substituted sulfonamide compounds and their use as therapeutic agents” (Xenon Pharmaceuticals Inc., priority 2018, dated 2021).
